# Patent US10087399B2, “Use of alkoxylated non-ionic surfactants as additive in aqueous membrane cleaning compositions” (BASF SE, priority 2012, dated 2018)
# B1: Subtilisin: protease subtilisin (Subtilisin A type VIII from Bacillus licheniformis, 12 U/mg, Sigma-Aldrich) (protein, UniProt P00780 106-379, looked up)
# Subtilisin Carlsberg: AQTVPYGIPLIKADKVQAQGFKGANVKVAVLDTGIQASHPDLNVVGGASFVAGEAYNTDGNGHGTHVAGTVAALDNTTGVLGVAPSVSLYAVKVLNSSGSGSYSGIVSGIEWATTNGMDVINMSLGGASGSTAMKQAVDNAYAKGVVVVAAAGNSGSSGNTNTIGYPAKYDSVIAVGAVDSNSNRASFSSVGAELEVMAPGAGVYSTYPTNTYATLNGTSMASPHVAGAAALILSKHPNLSASQVRNRLSSTATYLGSSFYYGKGLINVEAAAQ
# Tests used:
# [1] = Dynamic contact angle on PES; assay type: physicochemical; conditions: 0.2 g/l aqueous, 23° C.
# Protocol: (§1) Determination of the Dynamic Contact Angle
# (§2) The dynamic contact angle was measured with a video based high velocity measuring instrument for contact angle determination of the type OCAH 200 of the company Dataphysics Instruments 5 GmbH, Raiffeisenstr. 34, Fildersstadt, on the spin-coated glass slides.
# (§3) The surfactants according to the invention listed in Tables […] used in an aqueous solution at a concentration of 0.2 g/l.
# (§4) The contact angel is constantly determined (60 times per second) at 23° C. during 10 seconds after application. Under these conditions the contact angel of water without added surfactant remains at approximately at 65°. The contact angle on PA of the aqueous solutions of the branched tridecylethoxylates drops to 10° to 33°. The contact angle on PES of the aqueous solutions of the branched tridecylethoxylates drops to 17° to 37°. A contact angle after 10 seconds below 30° is preferred.
# [2] = Dynamic contact angle on PA; assay type: physicochemical; conditions: 0.2 g/l aqueous, 23° C.
# Protocol: as §1, §2, §3, §4
# [3] = system: Cobetia marina (DSMZ4741) bacterial fouling layer; assay: Cleaning of bacterial fouling layer on PA, fluorescence spectroscopy (DAPI / Concanavalin A); assay type: cell-based
# Protocol: Bacterial Strain and Growth Conditions
# To generate bacterial fouling layers, the marine bacterium Cobetia marina (DSMZ4741) was used in this study. The strain was purchased from the DSMZ culture collections, Germany. Sea Salt Peptone (SSP, all ingredients purchased from Sigma-Aldrich) (sea salt 20 g; peptone 18 g; deionised water 1,000 ml, pH 7.8) was used as the growth medium. The culture stock was maintained on Sea Salt Peptone Agar (SSPA, all ingredients purchased from Sigma-Aldrich) slants (sea salt 20 g; peptone 18 g; agar 30 g; deionised water 1,000 ml, pH 7.8). Prior to the experiments, the culture was grown in the SSP medium on a rotary shaker at 180 rpm at 28° C. for 20-22 h in order to obtain cells in the logphase.
# Preparation of Bacterial Fouling Layers
# The polyamid thin film substrates prepared on glass slides were conditioned for 24 h in artificial seawater (sea salt 20 g; deionised water 1,000 ml, pH 7.8) before being transferred to the bacterial cell suspensions. A freshly grown (logphase) bacterial suspension was prepared with an absorbance of 0.2 at a wavelength of 600 nm (DU 800, Beckman Coulter, Krefeld, Germany). The conditioned replicate slides (four for each assay) were placed into individual compartments of quadric petri dishes and 5 ml of the bacterial suspension was added thereby fully immersing the slides. The plates were placed in an incubator at 28° C. on a rotary shaker (90 rpm). After 1 h of incubation, the slides were transferred into new quadric petri dishes containing 5 ml of fresh SSP medium. The plates were incubated for another 4 h at 28° C. on a rotary shaker (90 rpm) for the attached bacteria to proliferate on the surface of the slides. At the end of the incubation, the slides were gently rinsed in artificial seawater to remove any non-adherent cells.
# Cleaning Experiments with Bacterial Fouling Layers
# Similar to the experiments using the multi-component molecular fouling layers, selected cleaning conditions (pH 12) and agents were tested for their ability to remove bacterial cells and EPS matrix. Additionally, the cleaning potential of the protease subtilisin (Subtilisin A type VIII from Bacillus licheniformis, 12 U/mg, Sigma-Aldrich) and methylglycine diacetic acid, sodium salt ([…], BASF SE) applied alone or in combination with the surfactant 2-propylheptanol, 6 EO, 1 PO (Lutensol⋅ XL 60, BASF SE) was evaluated. For that, the enzyme (100 μg/ml) and/or chelating agent (active concentration of 0.2%) and/or the surfactant (active concentration of 0.025%) were dissolved in 10 mM NaH2PO4 buffer (Sigma-Aldrich, pH 8.1). The bacterial fouling layers were immersed in the particular cleaning solution for 10 min at room temperature followed by rinsing in deionised water. After that, they were immediately fixed.
# For fluorescence microscopy/spectroscopy and atomic force microscopy, bacterial fouling layers were fixed by transferring the respective slides into quadric petri dishes containing 4% paraformaldehyde (Sigma-Aldrich). After incubation for 15 min, the layers were rinsed with deionised water and dried by nitrogen.
# For fluorescence staining, the slides were placed into custom-made incubation chambers in order to avoid backside staining. To stain the EPS matrix, Alexa 488-conjugated Concanavalin A (Molecular Probes, distributed by Invitrogen, Netherlands) dissolved in 0.1 M sodium bicarbonate (SigmaAldrich) buffer (pH 8.3) was added for 1 h in the dark (25 μg/cm^2). After incubation, the solution was removed and samples were washed with phosphate buffered saline (PBS, Sigma-Aldrich) twice. For staining of bacterial cells, DAPI solution (dissolved in PBS) was applied to Concanavalin A-stained samples for 5 min in the dark (25 μg/cm^2). After removal of the solution, the layers were washed with deionised water twice. Samples were taken out of the incubation chambers and dried by nitrogen.
# Quantification of Cleaning Efficiency by Fluorescence Spectroscopy […]
# [4] = 10 mM NaH2PO4 buffer pH 8.1, surfactant 0.025%, chelating agent 0.2%, enzyme 100 μg/ml, 10 min
Molecule,"Cleaning Performance, Cells (DAPI) [3, 4]","Cleaning Performance, Matrix (Concanavalin A) [3, 4]","Cleaning Performance, Cells (DAPI) ([3]; 0.025%, pH 12, 10 min)","Cleaning Performance, Matrix (Concanavalin A) ([3]; 0.025%, pH 12, 10 min)",further results
"branched C13—OH, 7 EO [Nr 4]",,,,,Contact angle at 0.1 s ([1]; 0.1 s): 45.0°; Contact angle at 1 s ([1]; 1.0 s): 34.8°; Contact angle at 10 s ([1]; 10.0 s): 17.9°; Contact angle at 0.1 s ([2]; 0.1 s): 48.2 °; Contact angle at 1 s ([2]; 1.0 s): 32.3 °; Contact angle at 10 s ([2]; 10.0 s): 10.5 °
"2-Propylheptanol, 6 EO, 1 PO [Nr 18]","31,8%","16,5%","51,7%","9,6%",
"2-Propylheptanol, 6 EO, 5 PO [Nr 38]",,,"52,8%","15,2%",
"linear alkylbenzenesulfonate, sodium salt [Nr 41, reference compound]",,,"35,9%","10,8%",
"CC(C(=O)[O-])N(CC(=O)[O-])CC(=O)[O-].[Na+].[Na+].[Na+] (stereo not shown) [Methylglycine diacetic acid, sodium salt, reference compound]","47,7%","42,5%","73,5%","42,5%",
"2-Propylheptanol, 6 EO [Nr 22]",,,"25,1%","0,2%",
B1,"17,8%","10,5%",,,
